# Source: US6096930A, “Herbicidal cyclohexane-1,3-dione derivatives and their preparation process” (Korea Research Institute of Chemical Technology, priority 1994, dated 2000)
# Where two headings read alike, the source gives them in different places.
# Assays:
# Assay in all cases: Herbicidal activity for paddy test
# Assay type in all cases: in vivo
# [1] = system: SAGPY; conditions: for pest or weed control at 2 g/ha: 0.002 kg/ha; for pest or weed control at 8 g/ha: 0.008 kg/ha; for pest or weed control at 31 g/ha: 0.031 kg/ha; for pest or weed control at 125 g/ha: 0.125 kg/ha; for pest or weed control at 500 g/ha: 0.500 kg/ha
# In short: (§1)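 Sterilized sandy loam; 115 cm^2 pot; furrow planting; visual % control, 0–100.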
# [2] = system: MOOVA; conditions: for pest or weed control at 2 g/ha: 0.002 kg/ha; for pest or weed control at 8 g/ha: 0.008 kg/ha; for pest or weed control at 31 g/ha: 0.031 kg/ha; for pest or weed control at 125 g/ha: 0.125 kg/ha; for pest or weed control at 500 g/ha: 0.500 kg/ha
# In short: as §1
# [3] = system: SCPJU; conditions: for pest or weed control at 2 g/ha: 0.002 kg/ha; for pest or weed control at 8 g/ha: 0.008 kg/ha; for pest or weed control at 31 g/ha: 0.031 kg/ha; for pest or weed control at 125 g/ha: 0.125 kg/ha; for pest or weed control at 500 g/ha: 0.500 kg/ha
# In short: as §1
# [4] = system: ECHOR; conditions: for pest or weed control at 2 g/ha: 0.002 kg/ha; for pest or weed control at 8 g/ha: 0.008 kg/ha; for pest or weed control at 31 g/ha: 0.031 kg/ha; for pest or weed control at 125 g/ha: 0.125 kg/ha; for pest or weed control at 500 g/ha: 0.500 kg/ha
# In short: as §1
# [5] = system: ORYSA; conditions: for plant injury at 2 g/ha: 0.002 kg/ha; for plant injury at 8 g/ha: 0.008 kg/ha; for plant injury at 31 g/ha: 0.031 kg/ha; for plant injury at 125 g/ha: 0.125 kg/ha; for plant injury at 500 g/ha: 0.500 kg/ha
# In short: as §1
# [6] = 3 Leaf, read-out: Herbicidal activity, ORYSA (3 Leaf)
# [7] = seed, read-out: Herbicidal activity, ORYSA (seed)
compound,measurement,setting,value
"C=CCON=C(CC)C1=C(O)CC(c2c(C)c(C)c3c(c2C)CC(C)(C)C3)CC1=O (stereo not drawn) [Compound 3, 5-(2,2,4,6,7-Pentamethylindan-5-yl)-2-[1-(allyloxyimino)propyl]-3-hydroxycyclohex-2-en-1-one]",pest or weed control at 2 g/ha,[1],0%
same,pest or weed control at 8 g/ha,[1],0%
same,pest or weed control at 31 g/ha,[1],0%
same,pest or weed control at 125 g/ha,[1],0%
same,pest or weed control at 500 g/ha,[1],0%
same,pest or weed control at 2 g/ha,[2],0%
same,pest or weed control at 8 g/ha,[2],0%
same,pest or weed control at 31 g/ha,[2],0%
same,pest or weed control at 125 g/ha,[2],0%
same,pest or weed control at 500 g/ha,[2],0%
same,pest or weed control at 2 g/ha,[3],0%
same,pest or weed control at 8 g/ha,[3],0%
same,pest or weed control at 31 g/ha,[3],0%
same,pest or weed control at 125 g/ha,[3],0%
same,pest or weed control at 500 g/ha,[3],0%
same,pest or weed control at 2 g/ha,[4],0%
same,pest or weed control at 8 g/ha,[4],100%
same,pest or weed control at 31 g/ha,[4],100%
same,pest or weed control at 125 g/ha,[4],100%
same,pest or weed control at 500 g/ha,[4],100%
same,plant injury at 2 g/ha,[5]; [6],0%
same,plant injury at 8 g/ha,[5]; [6],0%
same,plant injury at 31 g/ha,[5]; [6],0%
same,plant injury at 125 g/ha,[5]; [6],10%
same,plant injury at 500 g/ha,[5]; [6],100%
same,plant injury at 2 g/ha,[5]; [7],0%
same,plant injury at 8 g/ha,[5]; [7],10%
same,plant injury at 31 g/ha,[5]; [7],100%
same,plant injury at 125 g/ha,[5]; [7],100%
same,plant injury at 500 g/ha,[5]; [7],100%
CCCC(=NOC)C1=C(O)CC(c2c(C)c(C)c3c(c2Cl)CC(C)(C)C3)CC1=O (stereo not drawn) [Compound 42],pest or weed control at 2 g/ha,[1],0%
same,pest or weed control at 8 g/ha,[1],0%
same,pest or weed control at 31 g/ha,[1],0%
same,pest or weed control at 125 g/ha,[1],0%
same,pest or weed control at 500 g/ha,[1],0%
same,pest or weed control at 2 g/ha,[2],0%
same,pest or weed control at 8 g/ha,[2],0%
same,pest or weed control at 31 g/ha,[2],0%
same,pest or weed control at 125 g/ha,[2],0%
same,pest or weed control at 500 g/ha,[2],0%
same,pest or weed control at 2 g/ha,[3],0%
same,pest or weed control at 8 g/ha,[3],0%
same,pest or weed control at 31 g/ha,[3],0%
same,pest or weed control at 125 g/ha,[3],0%
same,pest or weed control at 500 g/ha,[3],0%
same,pest or weed control at 2 g/ha,[4],0%
same,pest or weed control at 8 g/ha,[4],0%
same,pest or weed control at 31 g/ha,[4],80%
same,pest or weed control at 125 g/ha,[4],100%
same,pest or weed control at 500 g/ha,[4],100%
same,plant injury at 2 g/ha,[5]; [6],0%
same,plant injury at 8 g/ha,[5]; [6],0%
same,plant injury at 31 g/ha,[5]; [6],0%
same,plant injury at 125 g/ha,[5]; [6],0%
same,plant injury at 500 g/ha,[5]; [6],0%
same,plant injury at 2 g/ha,[5]; [7],0%
same,plant injury at 8 g/ha,[5]; [7],0%
same,plant injury at 31 g/ha,[5]; [7],20%
same,plant injury at 125 g/ha,[5]; [7],100%
same,plant injury at 500 g/ha,[5]; [7],100%
CCC(=NOCC=CCl)C1=C(O)CC(c2c(C)c(C)c3c(c2C)CC(C)(C)C3)CC1=O (stereo not drawn) [Compound 4],pest or weed control at 2 g/ha,[1],0%
same,pest or weed control at 8 g/ha,[1],0%
same,pest or weed control at 31 g/ha,[1],0%
same,pest or weed control at 125 g/ha,[1],0%
same,pest or weed control at 500 g/ha,[1],50%
same,pest or weed control at 2 g/ha,[2],0%
same,pest or weed control at 8 g/ha,[2],0%
same,pest or weed control at 31 g/ha,[2],0%
same,pest or weed control at 125 g/ha,[2],0%
same,pest or weed control at 500 g/ha,[2],0%
same,pest or weed control at 2 g/ha,[3],0%
same,pest or weed control at 8 g/ha,[3],0%
same,pest or weed control at 31 g/ha,[3],0%
same,pest or weed control at 125 g/ha,[3],0%
same,pest or weed control at 500 g/ha,[3],0%
same,pest or weed control at 2 g/ha,[4],0%
same,pest or weed control at 8 g/ha,[4],100%
same,pest or weed control at 31 g/ha,[4],100%
same,pest or weed control at 125 g/ha,[4],100%
same,pest or weed control at 500 g/ha,[4],100%
same,plant injury at 2 g/ha,[5]; [6],0%
same,plant injury at 8 g/ha,[5]; [6],0%
same,plant injury at 31 g/ha,[5]; [6],0%
same,plant injury at 125 g/ha,[5]; [6],10%
same,plant injury at 500 g/ha,[5]; [6],40%
same,plant injury at 2 g/ha,[5]; [7],0%
same,plant injury at 8 g/ha,[5]; [7],0%
same,plant injury at 31 g/ha,[5]; [7],100%
same,plant injury at 125 g/ha,[5]; [7],100%
same,plant injury at 500 g/ha,[5]; [7],100%
"C=CCON=C(CC)C1=C(O)CC(c2c(C)c(C)c3c(c2C)CC(C)(CC)C3)CC1=O (stereo not drawn) [Compound 13, 5-(2-Ethyl-2,4,5,7-tetramethylindan-6-yl)-2-[1-(allyloxyimino)propyl]-3-hydroxycyclohex-2-en-1-one]",pest or weed control at 2 g/ha,[1],0%
same,pest or weed control at 8 g/ha,[1],0%
same,pest or weed control at 31 g/ha,[1],0%
same,pest or weed control at 125 g/ha,[1],30%
same,pest or weed control at 500 g/ha,[1],30%
same,pest or weed control at 2 g/ha,[2],0%
same,pest or weed control at 8 g/ha,[2],0%
same,pest or weed control at 31 g/ha,[2],0%
same,pest or weed control at 125 g/ha,[2],0%
same,pest or weed control at 500 g/ha,[2],30%
same,pest or weed control at 2 g/ha,[3],0%
same,pest or weed control at 8 g/ha,[3],0%
same,pest or weed control at 31 g/ha,[3],0%
same,pest or weed control at 125 g/ha,[3],0%
same,pest or weed control at 500 g/ha,[3],0%
same,pest or weed control at 2 g/ha,[4],30%
same,pest or weed control at 8 g/ha,[4],50%
same,pest or weed control at 31 g/ha,[4],100%
same,pest or weed control at 125 g/ha,[4],100%
same,pest or weed control at 500 g/ha,[4],100%
same,plant injury at 2 g/ha,[5]; [6],0%
same,plant injury at 8 g/ha,[5]; [6],0%
same,plant injury at 31 g/ha,[5]; [6],0%
same,plant injury at 125 g/ha,[5]; [6],0%
same,plant injury at 500 g/ha,[5]; [6],30%
same,plant injury at 2 g/ha,[5]; [7],0%
same,plant injury at 8 g/ha,[5]; [7],30%
same,plant injury at 31 g/ha,[5]; [7],50%
same,plant injury at 125 g/ha,[5]; [7],100%
same,plant injury at 500 g/ha,[5]; [7],100%
